Measurements reported in patent US11771086B2, “Pest control composition including novel iminopyridine derivative” (priority 2012, dated 2023).
Where two headings read alike, the source gives them in different places.

What was measured:
[1] = test system: Plutella xylostella; assay: whole plant or invertebrate; assay type: in vivo
Experimental: After an air drying process, second instar larvae were released thereto. […] The test was performed in duplicate.
(§1) Method for Judging Synergistic Effects

[2] = test system: Aphis gossypii; assay: whole plant or invertebrate; assay type: in vivo
Experimental: The test was performed in duplicate.
as §1

[3] = test system: Spodoptera litura; assay: whole plant or invertebrate; assay type: in vivo; settings: for Theoretical value by Colby's equation: Spodoptera litura; for Mortality of single agent against Spodoptera litura: cabbage leaf disk spray, three days
Experimental: After an air drying process, third instar larvae were released thereto. […] The test was performed in duplicate.
as §1

[4] = test system: rice blast; assay type: in vivo; settings: single agent 0.5 ppm; foliar application; fourteen days after inoculation
[5] = test system: Rhizoctonia solani; assay: Test Example 12 Test of control of rice sheath blight (Rhizoctonia solani); assay type: in vivo; settings: single agent 5 ppm; foliar spray; six days after inoculation
[6] = test system: Laodelphax striatellus; assay: Test Example 14 Test with Laodelphax striatellus by soil irrigation treatment (mixture with paddy herbicide); assay type: in vivo; settings: single agent 0.05 mg/seedling, five days after release
Experimental: After standing for three days, second instar larvae were released thereto. […] The test was performed in duplicate.

[7] = test system: Laodelphax striatella; assay: whole plant or invertebrate; settings: for mortality at 0.005 mg/seedling: read-out: Mortality of single agent against Laodelphax striatella, single agent 0.005 mg/Seedling; for Theoretical value by Colby's equation: Laodelphax striatella soil irrigation, single agent 0.5 mg/Seedling (other component 0); for Mortality of single agent against Laodelphax striatella: single agent 0.5 mg/Seedling
Experimental: (§2) After the rice seedling was left to stand for 3 days, second instar larvae were released thereto. Thereafter, the larvae were left to stand in a thermostatic chamber (16 hours of light period-8 hours of dark period) at 25° C. […] The test was performed in duplicate. Mortality of larvae (%)={number of dead larvae/(number of survived larvae+number of dead larvae)}×100
B: 100−(mortality of larvae or adults when treated only with each of imidacloprid, fipronil, chlorantraniliprole, spinosad, clothianidin, dinotefuran, sulfoxaflor, pymetrozine, thiamethoxam, flupyradifurone and cycloxaprid))
as §1
When the mortality against Laodelphax striatella in the case of a mixture with another agent exceeded the theoretical value by the Colby's equation, a synergistic effect was judged to be present.

[8] = test system: Frankliniella occidentalis; assay: whole plant or invertebrate
Experimental: as §2, with “an air drying process, first” for “the rice seedling was left to stand for 3 days, second”
(A: 100−(mortality of larvae or adults when treated only with Compound P212)
B: 100−(mortality of larvae or adults when treated with only the insecticide imidacloprid, dinotefuran, or acetamiprid))
as §1
When the mortality against Frankliniella occidentalis in the case of a mixture with another agent exceeded the theoretical value given by Colby's equation, a synergistic effect was judged to be present.

[9] = test system: Chilo suppressalis; assay type: in vivo; settings: for Mortality of single agent against Chilo suppressalis: soil irrigation, six days after release
Experimental: After standing for 3 days, second instar larvae were released thereto. […] The test was performed in duplicate.
as §1

[10] = test system: Naranga aenescens; assay type: in vivo; settings: for Mortality of single agent against Naranga aenescens: soil irrigation, five days after release
Experimental: After standing for 3 days, first instar larvae were released thereto. […] The test was performed in duplicate.
as §1

[11] = test system: Callosobruchus chinensis; assay type: in vivo; settings: single agent 0.2 ng/head; topical; one day
Experimental: A compound of Formula (I) and the insecticide indicated below, prepared in predetermined concentrations using acetone, were separately topically applied to the back of the same adult Callosobruchus chinensis. […] The test was performed in duplicate. Insect mortality (%)={number of dead insects/(number of survived insects+number of dead insects)}×100
(A: 100−(insect mortality for treatment with only Compound P212)
B: 100−(insect mortality for treatment with only the insecticide fipronil or imidacloprid))
as §1

[12] = test system: Nilaparvata lugens susceptible species (highly susceptible to imidacloprid); assay: Reference Test Example 19 Pest control test of Nilaparvata lugens, imidacloprid susceptible species (soil drench); assay type: in vivo; settings: for Insecticidal effects against Nilaparvata lugens (death rate %), Susceptible population: soil drench, six days
Experimental: (§3) Three days after the treatment, ten second instar larvae of Nilaparvata lugens, which had been collected outdoors and proliferated indoors, were each released to the rice seedling. […] Test in duplicate.
(§4) Furthermore, for comparison, the test against a species of Nilaparvata lugens which is highly susceptible to imidacloprid was performed by the same method as described above, and the results thereof are shown in Table 45. […] Meanwhile, the death rates of imidacloprid at 0.05 mg/seedling were (susceptible species) 100%, (resistant population I) 38% and (resistant population II) 69%, and the insecticidal effect thereof was also low even at a high dose. From the above results, it became obvious that Compound P212 and Compound 1-20 have high insecticidal effects even against Nilaparvata lugens resistance against imidacloprid.
(§5) Further, for the origin of test pests, bugs collected outdoors from the Kumamoto prefecture (I) in 2007 and from the Fukuoka prefecture (II) in 2005 as resistant population of Nilaparvata lugens, and bugs collected from the Kagoshima prefecture and then successively reared indoors for a long time as the imidacloprid susceptible population of Nilaparvata lugens were used.

[13] = test system: Nilaparvata lugens resistant population I; assay: Reference Test Example 19 Pest control test of Nilaparvata lugens, resistant population I (soil drench); assay type: in vivo
Experimental: as §3, §4, §5

[14] = test system: Nilaparvata lugens resistant population II; assay: Reference Test Example 19 Pest control test of Nilaparvata lugens, resistant population II (soil drench); assay type: in vivo; settings: for Insecticidal effects against Nilaparvata lugens (death rate %), Resistant population II: soil drench, six days
Experimental: as §3, §4, §5

[15] = test system: Haemaphysalis longicornis; assay: whole plant or invertebrate; assay type: in vivo; settings: Haemaphysalis longicornis, topical, 120 h, read-out: Mortality of single agent against Haemaphysalis longicornis, single agent 1.9 μg; capsule on mouse; five days; mortality and agonal rate
Experimental: A capsule with a diameter of 2 cm and a height of 2 cm was attached to the dorsal surface of a mouse. A compound of Formula (I), ivermectin, moxidectin, permethrin, amitraz, fipronil, spinetram and the mixture of the compound of Formula (I) and each insecticide were dissolved in ethanol at the concentrations given in […], and each of these was dripped onto the surface of a mouse body within a capsule. After thorough drying, eight Haemaphysalis longicornis nymphs were released and the top of the capsule was sealed with a lid. The mouse was kept in a cage at 25° C. using a 12-hour light period and a 12-hour dark period. Five days after the release, the capsule was removed and the number of surviving and dead nymphs and the number of engorged individuals were counted and the insect mortality and agonal rate was calculated by the following equation. Insect mortality and agonal rate (%)={number of dead and agonal insects/(number of survived insects+number of dead and agonal insects)}×100

[16] = Laodelphax striatellus, soil, 72 h, soil irrigation
[17] = Frankliniella occidentalis, foliar, 72 h, read-out: Mortality of single agent against Frankliniella occidentalis

C[C@]1(COC(=O)C2CC2)[C@@H]2C[C@H](O)[C@@]3(C)Oc4cc(-c5cccnc5)oc(=O)c4[C@H](O)[C@@H]3[C@@]2(C)CC[C@@H]1OC(=O)C1CC1 [Afidopyropen]
Theoretical value by Colby's equation ([1]; Plutella xylostella, single agent 5 ppm (other component 0)): 0% | Theoretical value by Colby's equation ([1]; Plutella xylostella, single agent 10 ppm (other component 0)): 20% | Mortality of single agent against Plutella xylostella ([1]; single agent 5 ppm, cabbage leaf disk spray, three days): 0% | Mortality of single agent against Plutella xylostella ([1]; single agent 10 ppm, cabbage leaf disk spray, three days): 20% | Theoretical value by Colby's equation ([2]; Aphis gossypii, single agent 0.002 ppm (other component 0)): 25% | Mortality of single agent against Aphis gossypii ([2]; single agent 0.002 ppm, cucumber leaf disk spray, three days): 25% | Theoretical value by Colby's equation ([3]; single agent 5 ppm (other component 0)): 0% | Theoretical value by Colby's equation ([3]; single agent 10 ppm (other component 0)): 0% | Mortality of single agent against Spodoptera litura ([3]; single agent 5 ppm): 0% | Mortality of single agent against Spodoptera litura ([3]; single agent 10 ppm): 0%

CO/C=C(/C(=O)OC)c1ccccc1Oc1cc(Oc2ccccc2C#N)ncn1 [Azoxystrobin]
Preventive value (Rice blast test, number of lesions) [4]: 37 | Preventive value (Sheath blight test, lesion height) [5]: 95

CCN(CC)C(=O)n1cnc(S(=O)(=O)c2c(C)cc(C)cc2C)n1 [Cafenstrole]
Mortality of larvae (Laodelphax striatellus) [6]: 0%

CCCCOC(=O)[C@@H](C)Oc1ccc(Oc2ccc(C#N)cc2F)cc1 [Cyhalofop-butyl]
Mortality of larvae (Laodelphax striatellus) [6]: 0%

Cc1ccc(NC(=O)NC(C)(C)c2ccccc2)cc1 [Daimuron]
Mortality of larvae (Laodelphax striatellus) [6]: 0%

C[C@@H](NC(=O)C(C#N)C(C)(C)C)c1ccc(Cl)cc1Cl (stereo partly shown) [Diclocymet]
Preventive value (Rice blast test, number of lesions) [4]: 8

CN/C(=N/CC1CCOC1)N[N+](=O)[O-] (stereo not shown) [Dinotefuran]
mortality at 0.005 mg/seedling [7, 16]: 0% | Theoretical value by Colby's equation ([8]; 5 ppm): 35% | mortality at 5 ppm [8, 17]: 35%

N#Cc1nn(-c2c(Cl)cc(C(F)(F)F)cc2Cl)c(N)c1[S+]([O-])C(F)(F)F (stereo not shown) [Fipronil]
mortality at 0.001 mg/seedling ([7]; Laodelphax striatellus, soil, 72 h, read-out: Mortality of single agent against Laodelphax striatella, single agent 0.001 mg/Seedling, soil irrigation): 0% | mortality at 0.005 mg/seedling [7, 16]: 26% | Theoretical value by Colby's equation ([1]; 0.04 ppm): 50% | mortality at 0.04 ppm ([1]; Plutella xylostella, foliar, 72 h, read-out: Mortality of single agent against Plutella xylostella, single agent 0.04 ppm, cabbage leaf disk spray, three days): 50% | Mortality of single agent against Chilo suppressalis ([9]; single agent 0.0005 mg/seedling): 40% | Mortality of single agent against Naranga aenescens ([10]; single agent 0.01 mg/seedling): 20% | Mortality of single agent against Callosobruchus chinensis [11]: 0%

Cc1nn(C)c(Cl)c1C(=O)Nc1cccc2c1C(C)OC2(C)C (stereo not shown) [Furametpyr]
Preventive value (Sheath blight test, lesion height) [5]: 77

N#Cc1ccccc1NC(=O)c1snc(Cl)c1Cl [Isotianil]
Theoretical value by Colby's equation [7]: 5% | Mortality of single agent against Laodelphax striatella ([7]; soil irrigation): 5% | Preventive value (Rice blast test, number of lesions) [4]: 66

C[C@H]1O[C@H](O[C@H]2[C@H](O)[C@@H](O)[C@@H](O)[C@H](O)[C@@H]2O)[C@@H](N)C[C@@H]1NC(=N)C(=O)O [Kasugamycin]
Preventive value (Rice blast test, number of lesions) [4]: 0

CNC(=O)/C(=N/OC)c1ccccc1CO/N=C(C)/C(=N/OC)C(/C)=N/OC [Orysastrobin]
Theoretical value by Colby's equation [7]: 4% | Mortality of single agent against Laodelphax striatella ([7]; soil irrigation): 4% | Preventive value (Rice blast test, number of lesions) [4]: 20 | Preventive value (Sheath blight test, lesion height) [5]: 72

O=C(Nc1ccccc1)N(Cc1ccc(Cl)cc1)C1CCCC1 [Pencycuron]
Preventive value (Sheath blight test, lesion height) [5]: 69

C[Si](C)(C)CC(O)(Cn1cncn1)c1ccc(F)cc1 (stereo not shown) [Simeconazole]
Preventive value (Sheath blight test, lesion height) [5]: 5

CC(=O)Oc1c(C)c(C)nc2c(F)cc(C(C)(C)C)cc12 [Tebufloquin]
Preventive value (Rice blast test, number of lesions) [4]: 48

Cc1nc(C(F)(F)F)c(C(=O)Nc2c(Br)cc(OC(F)(F)F)cc2Br)s1 [Thifluzamide]
Preventive value (Sheath blight test, lesion height) [5]: 92

Cc1ccc(NC(=O)c2snnc2C)cc1Cl [Tiadinil]
mortality at 0.5 mg/seedling ([7]; Laodelphax striatellus, soil, 72 h, read-out: Mortality of single agent against Laodelphax striatella, single agent 0.5 mg/Seedling, soil irrigation): 8% | Preventive value (Rice blast test, number of lesions) [4]: 0

Cc1cccc2sc3nncn3c12 [Tricyclazole]
Preventive value (Rice blast test, number of lesions) [4]: 72

OCC1=C[C@H](N[C@H]2C[C@H](CO)[C@@H](O[C@@H]3O[C@H](CO)[C@@H](O)[C@H](O)[C@H]3O)[C@H](O)[C@H]2O)[C@H](O)[C@@H](O)[C@@H]1O [Validamycin]
Preventive value (Sheath blight test, lesion height) [5]: 32

O=[N+]([O-])NC1=NCCN1Cc1ccc(Cl)nc1 [imidacloprid, reference compound]
death rates ([12]; susceptible species, 0.05 mg/seedling, six days after the release): 100% | Insecticidal effects against Nilaparvata lugens (death rate %), Susceptible population ([12]; throughput 0.01 mg/seedling): 100% | Insecticidal effects against Nilaparvata lugens (death rate %), Susceptible population ([12]; throughput 0.05 mg/seedling): 100% | death rates ([13]; resistant population I, 0.05 mg/seedling, six days after the release): 38% | Insecticidal effects against Nilaparvata lugens (death rate %), Resistant population I ([13]; throughput 0.05 mg/seedling, soil drench, six days): 38% | death rates ([14]; resistant population II, 0.05 mg/seedling, six days after the release): 69% | Insecticidal effects against Nilaparvata lugens (death rate %), Resistant population II ([14]; throughput 0.01 mg/seedling): 39% | Insecticidal effects against Nilaparvata lugens (death rate %), Resistant population II ([14]; throughput 0.05 mg/seedling): 69% | mortality at 0.005 mg/seedling [7, 16]: 0% | Theoretical value by Colby's equation ([8]; 20 ppm): 69% | mortality at 20 ppm [8, 17]: 69% | Mortality of single agent against Callosobruchus chinensis [11]: 40% | mortality at 0.0019 mg [15]: 7.7%

Spinosad
Theoretical value by Colby's equation [7]: 0% | Mortality of single agent against Laodelphax striatella ([7]; soil irrigation): 0% | Theoretical value by Colby's equation ([1]; Plutella xylostella, single agent 0.01 ppm (other component 0)): 11% | Mortality of single agent against Plutella xylostella ([1]; single agent 0.01 ppm, cabbage leaf disk spray, three days): 11% | Theoretical value by Colby's equation ([9]; Chilo suppressalis, single agent 0.002 mg/seedling (other component 0)): 80% | Mortality of single agent against Chilo suppressalis ([9]; single agent 0.002 mg/seedling): 80% | Theoretical value by Colby's equation ([10]; Naranga aenescens, single agent 0.005 mg/seedling (other component 0)): 40% | Mortality of single agent against Naranga aenescens ([10]; single agent 0.005 mg/seedling): 40%
